Here are results for three molecules from publication PMC5393604, “The fungal natural product azaphilone-9 binds to HuR and inhibits HuR-RNA interaction in vitro” (PLoS ONE, 2017).

Several values for one entry are separate records, joined by “and”; a condition that tells them apart may be missing. Identical values can stand only once.

Data set [1] concerns the target T1, HuR-ARE^Msi1 interaction (full length HuR) (Homo sapiens, UniProt Q15717).
T1 construct: full length HuR (326 residues); made in house; host or cells: E. coli BL21 (DE3)
As to the kind of experiment: FP competition assay, HuR-ARE^Msi1 binding. The format is biochemical. The settings on record: 10 nM HuR, 2 nM fluorescein-labeled ARE^Msi1; n = 3; read-out: IC50, inhibition of HuR-ARE^Msi1 interaction. Here is the method: Synthetic RNA oligos were from Dharmacon. For FP assay, fluorescein-tagged ARE^Msi1 oligo derived from the 3’-UTR of Musashi RNA-binding protein 1 (Msi1) with the sequence 5’-GCUUUUAUUUAUUUUG-3’ and 11-mer ARE^c-fos RNA oligo (5’-AUUUUUAUUUU-3’) identical to the c-fos RNA sequence used in the crystal structure of HuR-RNA complex were used. For NMR studies, unmodified 11-mer ARE^c-fos RNA oligo [8] was used. Prior to the addition of RNA to the protein, the RNA was heated at 95°C for 5 min followed by immediate cooling on ice for 5 min. […]
FP competition assay for screening and hit validation were carried out as reported previously. […] Measurements were taken using a BioTek Synergy H4 hybrid plate reader (Biotek, Winooski, VT) after incubating for 2 hours at room temperature. […] Percent inhibition was calculated by comparing to the DMSO (0% inhibition) and labeled free RNA only (100% inhibition) controls.
A FP-based high throughput screen on HuR and a 16-mer ARE^Msi1 RNA oligomer from the 3’-UTR of Musashi1 (Msi1) mRNA previously identified novel small molecule inhibitors of HuR-ARE interaction. […] Multi-dose effect was determined to verify the inhibition of HuR-ARE interaction. […]

The target of data set [2] is T2, HuR-ARE^c-fos interaction (full length HuR) (Homo sapiens, UniProt Q15717).
T2 construct: full length HuR (326 residues); made in house; host or cells: E. coli BL21 (DE3)
As to the kind of experiment: FP competition assay, HuR-ARE^c-fos binding. The settings on record: 10 nM full length HuR, 2 nM fluorescein-labeled ARE^c-fos; n = 3; read-out: IC50, disruption of HuR-ARE^c-fos binding. The format is biochemical. Here is the method: (§1) Synthetic RNA oligos were from Dharmacon. For FP assay, fluorescein-tagged ARE^Msi1 oligo derived from the 3’-UTR of Musashi RNA-binding protein 1 (Msi1) with the sequence 5’-GCUUUUAUUUAUUUUG-3’ and 11-mer ARE^c-fos RNA oligo (5’-AUUUUUAUUUU-3’) identical to the c-fos RNA sequence used in the crystal structure of HuR-RNA complex were used. For NMR studies, unmodified 11-mer ARE^c-fos RNA oligo [8] was used. Prior to the addition of RNA to the protein, the RNA was heated at 95°C for 5 min followed by immediate cooling on ice for 5 min. The azaphilone derivatives used herein were obtained by semisynthetic diversification of asperbenzaldehyde, which was purified from a strain of Aspergillus nidulans that was engineered to overproduce this compound as described elsewhere. Compounds were dissolved in dimethyl sulfoxide (DMSO) to form 10 mM stock solutions; for NMR studies, deuterated dimethyl sulfoxide (d6-DMSO) was used.
(§2) FP competition assay for screening and hit validation were carried out as reported previously. […] Measurements were taken using a BioTek Synergy H4 hybrid plate reader (Biotek, Winooski, VT) after incubating for 2 hours at room temperature. […] Percent inhibition was calculated by comparing to the DMSO (0% inhibition) and labeled free RNA only (100% inhibition) controls. […]

The target of data set [3] is Musashi-1 (Msi1) (Homo sapiens, UniProt O43347). Briefly: Binding to Musashi-1 (unpublished data). The settings on record: authors' unpublished data.
Data set [4] has as its target T3, HuR (Homo sapiens, UniProt Q15717).
T3 construct: made in house; host or cells: E. coli BL21 (DE3)
Briefly: Surface plasmon resonance, direct binding to immobilized HuR. The settings on record: injected at 0–125 μM, 20°C; n = 2. Here is the method: Surface plasmon resonance (SPR) datasets were acquired using a BIACORE 3000 (GE Healthcare) at 20°C as described. Briefly, HuR was immobilized into a CM5 chip by amine-coupling chemistry and AZA-9 dissolved in buffer (20 mM HEPES pH 7.4, 150 mM NaCl, 3 mM EDTA, 0.05% p20 (v/v), 5% DMSO (v/v)) was injected into the flow cell at a flow rate of 60 μL/min. The mixtures complexes were allowed to associate for 400 sec and dissociate for 160 sec. SPR sensorgrams were generated using Scrubber2 (BioLogic Software, Australia).
Fig 1 AZA-9 inhibits HuR-ARE RNA interaction and binds directly to HuR. Titration of 2 nM ARE^c-fos and control RNA (a 16-nt fluorescein-labeled RNA oligo with random sequence) with (A) HuR and (B) HuR RRM1/2 (n = 3). (C) Dose-response curve of AZA-9 disrupting HuR-ARE^c-fos binding in FP assay using 10 nM HuR and 2 nM fluorescein-labeled ARE^c-fos (n = 3). (D) Dose-response curve of AZA-9 disrupting HuR RRM1/2-ARE^c-fos binding in FP assay using 50 nM HuR RRM1/2 and 2 nM fluorescein-labeled ARE^c-fos (n = 3). (E) SPR sensorgrams of AZA-9 injected at increasing concentrations of 0–125 μM into a flow cell containing immobilized HuR (n = 2). Structure of AZA-9 is shown on the right. The following were the negative controls used–random RNA in (A) and (B); and AZA-15 in (C) and (D). […]
(In SPR one partner is held on a chip, and binding of the other changes the refractive index at the surface.)

For data set [5], the target named is T4, HuR RRM1/2 (Homo sapiens, UniProt Q15717).
T4 construct: HuR RRM1/2 (residues 18–186); made in house; host or cells: E. coli BL21 (DE3)
Briefly: NMR titration of 15N/ILV-labeled HuR RRM1/2. The format is binding. The following applies: equimolar concentration (1:1), 50 μM 15N HuR RRM1/2. Here is the method: Proteins for NMR were dissolved in NMR buffer (100 mM NaCl, 10 mM NaPO4 pH 6.8, 10% D2O). ^15N NMR data were acquired using Bruker Avance 800 MHz spectrometer with a TCI cryoprobe. ILV ^13C NMR data were acquired using on a Bruker Avance III 600 MHz spectrometer. NMR data were acquired at 25°C, processed using NMRPipe and analyzed using NMRView. For ^15N and ILV chemical shift mapping, 80 μM ^15N/ILV-labeled HuR RRM1/2 was titrated with unlabeled ARE^c-fos RNA at increasing molar ratios of 1:0, 1:0.5, 1:1, and 1:1.7. AZA-9 was titrated at 1:1 and 1:2 molar ratios into 50 μM ^15N/ ILV-labeled HuR RRM1/2 in NMR buffer with 10% d6-DMSO. […] The ^15N titrations were monitored by acquiring 2D ^1H-^15N TROSY spectra, and the ILV titrations were monitored by acquiring 2D ^1H-^13C HSQC spectra. The published backbone amide assignments of HuR RRM1/2 (BMRB entry 26628) and the ILV assignments made herein were used in the NMR analysis.
The interaction of AZA-9 with HuR RRM1/2 was characterized by NMR methods. […] Specifically, residue R97 in the inter-domain linker region (whose intensity reduced by ~50% at equimolar concentration of AZA-9, Fig 4C) has been previously reported as important for RNA binding, RNA recognition and high affinity HuR-RNA complex formation. […]

Data set [6] deals with T5, HuR RRM1/2-ARE^c-fos interaction (Homo sapiens, UniProt Q15717).
T5 construct: HuR RRM1/2 (residues 18–186); made in house; host or cells: E. coli BL21 (DE3)
Briefly: FP competition assay, HuR RRM1/2-ARE^c-fos binding. It is filed as biochemical. The settings on record: 50 nM HuR RRM1/2, 2 nM fluorescein-labeled ARE^c-fos; n = 3; read-out: IC50, disruption of HuR RRM1/2-ARE^c-fos binding. Here is the method:
as §1, §2

Data set [7] concerns the target HuR RRM1/2 (UniProt Q15717 18-186). As to the kind of experiment: fluorescence polarization; 2 nM RNA; FP: room temperature, 2 h incubation in the competition assay, buffer not given (as in cited ref 22); NMR: 100 mM NaCl, 10 mM sodium phosphate pH 6.8, 10% D2O. The following applies: protein: recombinant; tags: N-terminal His6 (retained); single strand. Background: Polarisation of emitted light reports the rotation of a fluorescent probe.

In data set [8] the target is T6, HuR full length (UniProt Q15717 1-326). Described as above. The settings on record: protein: recombinant; single strand.
The target of data set [9] is T6, HuR full length. Briefly: fluorescence polarization; 10 nM HuR, 2 nM RNA; complex disrupted by AZA-9 (compound IC50 1.1 uM); FP: room temperature, 2 h incubation in the competition assay, buffer not given (as in cited ref 22); NMR: 100 mM NaCl, 10 mM sodium phosphate pH 6.8, 10% D2O. The following applies: protein: recombinant; single strand.

T2 sequence (Q15717 whole entry): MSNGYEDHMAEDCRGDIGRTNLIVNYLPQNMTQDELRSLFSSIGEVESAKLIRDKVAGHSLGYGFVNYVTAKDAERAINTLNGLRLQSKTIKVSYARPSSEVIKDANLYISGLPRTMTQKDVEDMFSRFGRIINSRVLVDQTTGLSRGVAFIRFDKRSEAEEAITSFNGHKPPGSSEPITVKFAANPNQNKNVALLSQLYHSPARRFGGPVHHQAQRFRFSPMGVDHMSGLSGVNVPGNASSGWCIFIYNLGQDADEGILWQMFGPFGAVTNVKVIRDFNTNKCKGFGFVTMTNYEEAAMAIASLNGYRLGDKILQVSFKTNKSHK
T6 sequence (Q15717 whole entry): as above
Chain of HuR RRM1/2 (UniProt Q15717 18-186) (Q15717 18-186): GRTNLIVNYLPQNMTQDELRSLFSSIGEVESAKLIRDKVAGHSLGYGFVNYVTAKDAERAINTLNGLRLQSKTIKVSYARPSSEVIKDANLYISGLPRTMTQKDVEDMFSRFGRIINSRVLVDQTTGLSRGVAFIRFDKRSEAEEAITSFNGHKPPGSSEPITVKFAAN
T5 sequence (Q15717 18-186): as above
T4 sequence (Q15717 18-186): as above
T3 sequence (Q15717 whole entry): as the sequence (Q15717 whole entry) above
T1 sequence (Q15717 whole entry): as above
Chain of Musashi-1 (Msi1) (O43347 whole entry, species assumed): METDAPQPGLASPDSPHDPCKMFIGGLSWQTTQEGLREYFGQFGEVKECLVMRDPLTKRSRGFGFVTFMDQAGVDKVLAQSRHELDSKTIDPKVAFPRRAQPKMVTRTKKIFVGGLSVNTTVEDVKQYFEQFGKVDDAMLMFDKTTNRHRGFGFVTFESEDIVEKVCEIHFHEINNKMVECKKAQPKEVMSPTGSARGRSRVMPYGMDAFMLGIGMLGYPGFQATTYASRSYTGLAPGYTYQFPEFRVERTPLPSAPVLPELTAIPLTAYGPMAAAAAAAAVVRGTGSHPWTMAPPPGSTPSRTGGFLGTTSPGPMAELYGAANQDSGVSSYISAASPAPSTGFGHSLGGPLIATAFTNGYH

In the case of `CC[C@H](C)/C=C(C)/C=C/C1=CC2=C(Br)C(=O)C(C)(OC(C)=O)C(=O)C2=CO1` (stereo partly drawn) [AZA-9, azaphilone-9], the IC50 was 1.1 µM in data set [1]; ~1.2 µM and 1.2 µM in data set [2]; 7.4 µM in data set [6]. In addition, in [3], the “binding to Musashi-1 (in words)” value is “also binds”. Further, in data set [4], the “SPR optical response on immobilized HuR (in words)” value is “increased optical response in a dose-dependent manner”. In data set [5], the “reduction of NMR peak intensity of residue R97” value was ~ 50%.
On to AUUUUUAUUUU (ssRNA) [AREc-fos (fluorescein)], for which the Kd was 0.0222 µM in data set [7] and 0.0033 µM in [8].
For GCUUUUAUUUAUUUUG (ssRNA) [AREMsi1 (fluorescein)], the binding result in data set [9] is reported as “binds”.

As a reminder, the Kd is the concentration at which binding is half-saturated.
